ChEMBL document CHEMBL4818987, “Recent advances of podophyllotoxin/epipodophyllotoxin hybrids in anticancer activity, mode of action, and structure-activity relationship: An update (2010-2020)” (Eur J Med Chem, 2020)

Tests used:
[1] = tested on: HeLa; assay: Antiproliferative activity against human HeLa cells incubated for 48 hrs by MTT assay; format: functional, cell-based
[2] = tested on: A549; assay: Antiproliferative activity against human A549 cells incubated for 48 hrs by MTT assay; format: functional, cell-based; conditions: A549, 48 h
[3] = tested on: HepG2; assay: Antiproliferative activity against human HepG2 cells incubated for 48 hrs by MTT assay; format: functional, cell-based; conditions: HepG2, 48 h
[4] = tested on: MCF7; assay: Antiproliferative activity against human MCF7 cells incubated for 48 hrs by MTT assay; format: functional, cell-based; conditions: MCF7, 48 h
[5] = tested on: K562; assay: Cytotoxicity against human K562 cells incubated for 72 hrs by CCK8 assay; format: functional, cell-based; conditions: K562, 72 h
[6] = Resistance index, ratio of IC50 for human K562/ADR cells to IC50 for human K562 cells; format: functional
[7] = tested on: K562/Adr; assay: Cytotoxicity against human K562/ADR cells incubated for 72 hrs by CCK8 assay; format: functional, cell-based
[8] = tested on: HeLa; assay: Antiproliferative activity against human HeLa cells incubated for 24 hrs by MTT assay; format: functional, cell-based
[9] = tested on: A549; assay: Antiproliferative activity against human A549 cells incubated for 24 hrs by MTT assay; format: functional, cell-based; conditions: A549, 24 h
[10] = tested on: Calu-1; assay: Antiproliferative activity against human Calu-1 cells incubated for 24 hrs by MTT assay; format: functional, cell-based; conditions: Calu-1, 24 h
[11] = tested on: SW480; assay: Antiproliferative activity against human SW480 cells incubated for 48 hrs by MTT assay; format: functional, cell-based; conditions: SW480, 48 h
[12] = tested on: HL-60; assay: Antiproliferative activity against human HL-60 cells incubated for 48 hrs by MTT assay; format: functional, cell-based; conditions: HL-60, 48 h
[13] = tested on: SMMC-7721; assay: Antiproliferative activity against human SMMC-7721 cells incubated for 48 hrs by MTT assay; format: functional, cell-based; conditions: SMMC-7721, 48 h

SMILES	IC50 [1] [nM]	IC50 [2] [nM]	IC50 [3] [nM]	IC50 [4] [nM]	IC50 [8] [nM]	IC50 [9] [nM]	IC50 [10] [nM]	also measured
COc1cc([C@@H]2c3cc4c(cc3C[C@H]3COC(=O)[C@@H]32)OCO4)cc(OC)c1OC(=O)NCC(=O)N1CCN(c2ccc([N+](=O)[O-])cc2)CC1	183	183	210					
CCC[C@H]1O[C@H](O[C@@H]2c3cc4c(cc3[C@@H](c3cc(OC)c(O)c(OC)c3)[C@H]3C(=O)OC[C@@H]32)OCO4)CC[C@H]1O	41.6	41.6	41.6	41.6				
COc1cc([C@@H]2c3cc4c(cc3[C@H](OC(=O)/C=C/c3ccc(F)cc3)[C@H]3COC(=O)[C@H]23)OCO4)cc(OC)c1OC								IC50 [5]: 11 nM; Ratio IC50 [6]: 1.1; IC50 [7]: 11 nM
COc1ccc(C2SCCC(CCCCC(=O)O[C@H]3c4cc5c(cc4[C@@H](c4cc(OC)c(OC)c(OC)c4)[C@H]4C(=O)OC[C@@H]43)OCO5)S2)cc1O (stereo not given in full)					2680	2680	2680	
COc1ccc(C2SCCC(CCCCC(=O)O[C@H]3c4cc5c(cc4[C@@H](c4cc(OC)c(OC)c(OC)c4)[C@H]4C(=O)OC[C@@H]43)OCO5)S2)cc1OC (stereo not given in full)					2680	2680	2680	
CCC[C@@H]1O[C@H](O[C@H]2c3cc4c(cc3[C@@H](c3cc(OC)c(OC)c(OC)c3)[C@H]3C(=O)OC[C@@H]32)OCO4)CC[C@H]1O	41.6	41.6	41.6	41.6				
COc1cc([C@@H]2c3cc4c(cc3[C@H](OC(=O)/C=C/c3ccc(C)cc3)[C@H]3COC(=O)[C@H]23)OCO4)cc(OC)c1OC								IC50 [5]: 11 nM; Ratio IC50 [6]: 1.1; IC50 [7]: 11 nM
COc1cc([C@@H]2c3cc4c(cc3[C@H](OC(=O)CCCCC3CCSC(c5ccc(Cl)cc5)S3)[C@H]3COC(=O)[C@H]23)OCO4)cc(OC)c1OC (stereo not given in full)					2680	2680	2680	
COc1cc([C@@H]2c3cc4c(cc3[C@@H](n3cc(COC(=O)CCCCCNC(=O)CCCC[C@@H]5SC[C@@H]6NC(=O)N[C@@H]65)nn3)[C@H]3COC(=O)[C@H]23)OCO4)cc(OC)c1O		> 130		> 130				IC50 [11]: > 130 nM; IC50 [12]: > 130 nM; IC50 [13]: > 130 nM
CC[C@H]1O[C@@H](O[C@@H]2c3cc4c(cc3[C@@H](c3cc(OC)c(O)c(OC)c3)[C@H]3C(=O)OC[C@@H]32)OCO4)CC[C@H]1O	41.6	41.6	41.6	41.6				
COc1cc([C@@H]2c3cc4c(cc3[C@@H](O[C@H]3CC[C@@H](O)[C@@H](C(C)C)O3)[C@H]3COC(=O)[C@H]23)OCO4)cc(OC)c1O	41.6	41.6	41.6	41.6				
COc1cc([C@@H]2c3cc4c(cc3[C@H](OC(=O)CCCCC3CCSC(c5ccccc5)S3)[C@H]3COC(=O)[C@H]23)OCO4)cc(OC)c1OC (stereo not given in full)					2680	2680	2680	
CCCC(=O)O[C@@H]1[C@@H](OC(=O)CCC)[C@@H](O[C@@H]2c3cc4c(cc3[C@@H](c3cc(OC)c(O)c(OC)c3)[C@H]3C(=O)OC[C@@H]32)OCO4)OC[C@H]1OC(=O)CCC		> 2900		> 2900				IC50 [11]: > 2900 nM; IC50 [12]: > 2900 nM; IC50 [13]: > 2900 nM
COc1cc([C@@H]2c3cc4c(cc3[C@@H](O[C@@H]3CC[C@@H](O)[C@@H](C)O3)[C@H]3COC(=O)[C@H]23)OCO4)cc(OC)c1O	41.6	41.6	41.6	41.6				
COc1cc([C@@H]2c3cc4c(cc3[C@H](O[C@H]3CC[C@@H](O)[C@H](C(C)C)O3)[C@H]3COC(=O)[C@H]23)OCO4)cc(OC)c1OC	41.6	41.6	41.6	41.6				
COc1cc([C@@H]2c3cc4c(cc3[C@H](OC(=O)CCCCC3CCSC(c5ccc(Br)cc5)S3)[C@H]3COC(=O)[C@H]23)OCO4)cc(OC)c1OC (stereo not given in full)					2680	2680	2680	
COc1cc([C@@H]2c3cc4c(cc3[C@H](O[C@H]3CC[C@@H](O)[C@H](C)O3)[C@H]3COC(=O)[C@H]23)OCO4)cc(OC)c1OC	41.6	41.6	41.6	41.6				
COc1cc([C@@H]2c3cc4c(cc3[C@H](OC(=O)CCCCC3CCSC(c5ccc(Cl)cc5Cl)S3)[C@H]3COC(=O)[C@H]23)OCO4)cc(OC)c1OC (stereo not given in full)					2680	2680	2680	
